Literature values in US20020022622A1, “Thiazole, imidazole and oxazole compounds and treatments of disorders associated with protein aging” (priority 2000, published 2002).

Experiments:
[1] = system: aortic wall protein cross-linking; conditions: diabetic rats
[2] = system: immunoglobulin trapping in the kidney; conditions: in vivo
[3] = system: glomerular basement membrane thickness; conditions: streptozotocin-diabetic rat model
[4] = system: red blood cells; conditions: in vivo

N=C(N)NN [aminoguanidine]
aortic wall protein cross-linking [1]: diminishes | immunoglobulin trapping in the kidney [2]: reduction | increased glomerular basement membrane thickness [3]: prevented | diabetes-induced changes in the deformability of red blood cells [4]: prevent
